Entries after “also recorded” stand apart in the source; their conditions may differ. Read-outs that look alike come from different tables or passages of the source. Ends that are not written are not given here. Peptide text beside a SMILES is read from it.
What was measured:
[1] = system: Escherichia coli, ATCC 25922
Excerpt: (§4) The antibacterial activity against two strains of bacteria of a previously published cHABP1 peptide,^65,66 an antimicrobial peptide designed through artificial intelligence methods (HHC-36),^67 and a chimeric peptide cHABP1-GGG-HHC36 to functionalize calcium phosphate surfaces with antibacterial activity.

[2] = system: S. mutans
Excerpt: as §4

[3] = system: S. epidermidis (ATCC 29886); conditions: in solution; previously published values; cited from earlier work
[4] = system: S. mutans (ATCC 25175); conditions: in solution; previously published values; cited from earlier work
[5] = system: S. epidermidis; test: Antimicrobial activity on bio-coated titanium substrates, fluorescence imaging and ImageJ; assay type: cell-based
Excerpt: Two surfaces, 99% pure titanium foil (Alfa Aesar 43677, Ward Hill, Mass.) and titanium implant discs cut from standard rods used in posterior lumbar surgery (University of Kansas Medical Center Department of Neurosurgery, Kansas City, Kans.) were used for evaluation of TiBP-Spacer5-AMP biocoating antimicrobial activity. Titanium foils were cut into squares measuring 0.5 mm thick×1 cm×1 cm and 6 mm diameter implant rods were cut by the University of Kansas Medical Center Department of Neurosurgery with a standard orthopedic surgical rod cutter into 3 mm long disc segments. […]
Antimicrobial activity of TiBP-Spacer5-AMP biocoated titanium surfaces against each bacterial strain was evaluated by culturing bacteria in 24 well plates containing bio-coated surfaces or bare, untreated control surfaces. […] Stained bacteria were imaged with a fluorescence microscope (Olympus Spin Disk Epifluorescent microscope, Richmond Hill, Ontario, Canada) at an excitation/emission wave number provided by the manufacturer. Five representative fluorescence images were taken for each sample (n=3) and the bacteria were quantified using ImageJ Software and then subjected to statistical analysis.

[6] = system: S. epidermidis (ATCC 29886); test: AlamarBlue assay, minimum bactericidal concentration; assay type: cell-based
Method: (§1) The antimicrobial activity of TiBP-Spacer5-AMP was evaluated against two bacterial strains, S. mutans (American Type Culture Collection (ATCC) 25175, Manassas, Va.) and S. epidermidis (ATCC 29886). S. mutans cultures were prepared using Brain Heart Infusion Broth (BHI, BD Difco, Franklin Lakes, N.J.) and S. epidermidis using Nutrient Broth (NB, BD Difco) according to ATCC protocols. Bacterial pellets obtained from ATCC were rehydrated in appropriate media of which several drops were used to streak either BHI or NB agar plates. Bacteria streaked agar plates were subsequently incubated for 24 h. Agar plates and cultures were incubated at 37° C. in the presence of 5% CO2-supplemented atmosphere for S. mutans and in aerobic atmosphere and 200 rpm shaking for S. epidermidis. Overnight cultures were made by aseptically transferring a single-colony forming unit (CFU) into 10 mL of appropriate broth media followed by incubation in appropriate conditions for 16 h. Bacteria from overnight cultures were used to inoculate fresh media and grown to mid-log phase.
(§2) The MIC of TiBP-Spacer5-AMP against S. mutans and S. epidermidis in solution was evaluated in 96 well plates (Corning Costar 3370, Corning, N.Y.) spectrophotometrically over a period of 24 h by obtaining a measurement for the optical density at 600 nm (OD600) every two hours. […]

[7] = system: S. mutans (ATCC 25175); test: as above; assay type: cell-based
Method: as §1, §2

[8] = system: S. epidermidis (ATCC 29886); test: MIC in solution, OD600 over 24 h; assay type: cell-based; parameters: key to Growth: Entries with a “+” indicate bacterial growth did occur at that concentration of TiBP-Spacer5-AMP; entries with a “−” indicate inhibition of bacterial growth; conditions: for Growth: S. epidermidis
Method: as §1
(§3) The MIC of TiBP-Spacer5-AMP against S. mutans and S. epidermidis in solution was evaluated in 96 well plates (Corning Costar 3370, Corning, N.Y.) spectrophotometrically over a period of 24 h by obtaining a measurement for the optical density at 600 nm (OD600) every two hours. Optical density at 600 nm was measured using a Cytation3 microplate reader (Bio Tek Instruments, Winooski, Vt.). Bacteria grown to mid-log phase at a density of 10^7 CFU/mL were cultured at appropriate growth conditions in appropriate broth media only as a control or in broth media containing a range from 5-70 μM of TiBP-Spacer5-AMP for S. mutans and 1-10 μM for S. epidermidis. The OD600 measurements obtained, relating optical density to bacteria CFUs/mL, were plotted versus time to generate standard growth curves. The minimum concentration of TiBP-Spacer5-AMP at which no increase in optical density measurement, corresponding to no bacterial growth occurring was designated as the MIC. AlamarBlue assay (Invitrogen, Carlsbad, Calif.) was used for determination of a minimum bactericidal concentration of TiBP-Spacer5-AMP. Bacteria in broth media only and with the TiBPSpacer5-AMP concentrations described in the MIC experiments were prepared in 96 well plates. AlamarBlue reagent was added to experimental wells and incubated for two hours at 37° C. Experimental wells were observed and evaluated for color change. Wells corresponding to concentrations of TiBP-Spacer5-AMP where no color change occurred were determined to have bactericidal concentrations of the chimeric peptide.

[9] = system: S. mutans (ATCC 25175); test: MIC in solution, OD600 over 24 h; assay type: cell-based; parameters: key to Growth: Entries with a “+” indicate bacterial growth did occur at that concentration of TiBP-Spacer5-AMP; entries with a “−” indicate inhibition of bacterial growth; conditions: for Growth: S. mutans
Method: as §1, §3

[10] = system: NIH/3T3 fibroblast; test: Host cell attachment and spreading on coated titanium surfaces; assay type: cell-based; conditions: 60 μM bio-coating
Method: Host cell response was evaluated with a fibroblast cell line (NIH/3T3 ATCC CRL-1658). The fibroblast cells were cultured following the ATCC protocol. Briefly, cells were grown in DMEM media (Gibco 11995073, Carlsbad, Calif.) supplemented with 10% fetal bovine serum (Gibco 10437036) and 1% penicillin-streptomycin (Gibco 15070063) and incubated at 37° C. in a 5% CO2 atmosphere. Fibroblasts were passaged using 0.25% TrypsinEDTA (Gibco 25200072) and cells were counted to ensure correct seeding concentrations. Fibroblast cell response to 60 μM TiBP-Spacer5AMP bio-coating, 200 μg/mL collagen (Sigma C7661, St. Louis, Mo.) coating (positive control) and bare, untreated (negative control) titanium foil and implant surfaces was studied. Fibroblast cells at a concentration of 8×10^5 cells/mL were added to sterile 24 well plates containing TiBP-Spacer5-AMP coated, collagen coated, or bare, untreated foils or implants and incubated for 24 h at 37° C. in a 5% CO2 atmosphere. Fibroblast attachment and spreading were evaluated by fixing fibroblasts on titanium surfaces with 2% glutaraldehyde solution, followed by dehydration in 10%, 30%, 60%, 90% and 100% ethanol. Fixed fibroblasts on titanium surfaces were washed twice with PBS, permeabilized with TritonX (Sigma T8787), sealed with BSA (Fisher BioReagents BP671-10, Carlsbad, Calif.), and stained with Alexa Fluor488-Phalloidin dye (Invitrogen). Unbound dye was removed by washing with PBS and substrates were imaged with a fluorescent microscope at 4, 10 and 20 times magnification. Five representative images of each surface (n=3) were obtained and analyzed with ImageJ Software and then subjected to statistical analysis. Cell attachment was determined as number of cells per square millimeter and the percentage of the image surface covered by attached cells. Another measure of viability, metabolic activity was determined using a MTT (3-(4,5-dimethylthiazol-2-yl)-25-diphenyltetrazolium bromide) assay (Sigma M5655). […] Absorbance was measured at 570 nm.

With `CSCC[C@H](NC(=O)[C@@H](N)CS)C(=O)N[C@@H](CC(C)C)C(=O)N1CCC[C@H]1C(=O)N[C@@H](Cc1c[nH]cn1)C(=O)N[C@@H](Cc1c[nH]cn1)C(=O)NCC(=O)N[C@@H](C)C(=O)N[C@@H](CS)C(=O)O` [cHABP1, CMLPHHGAC (SEQ ID NO: 36)] (H-CMLPHHGAC-OH; N-terminus and C-terminus assumed) the “antibacterial activity by absorbance at 600 nm (FIG. 11)” value ([1]; E. coli) was “some antibacterial activity in the higher tested concentrations” and the “antibacterial activity by absorbance at 600 nm (FIG. 11)” value ([2]; S. mutans) was “some antibacterial activity in the higher tested concentrations”.
With “KRWWKWWRR [HHC-36, KRWWKWWRR (SEQ ID NO: 37)]” the “E. coli IC50” value [1] was 12 mg/L, the MIC estimate ([1]; Escherichia coli, ATCC 25922) was 21.5 µM and the “S. mutans IC50” value [2] was 3 mg/L. It also gave an MIC value ([2]; S. mutans) of 10.8 µM.
In the case of “LKLLKKLLKLLKKL (SEQ ID NO: 8) [AMP, antimicrobial peptide]”, the “Minimum Inhibitory Concentration (MIC) S. epidermidis” value [3] is listed as 4 µM and the “Minimum Inhibitory Concentration (MIC) S. mutans” value [4] is listed as 38 µM.
In the case of “RPRENRGRERGL-GGG-LKLLKKLLKLLKKL (SEQ ID NO: 9) (RPRENRGRERGLGGGLKLLKKLLKLLKKL) [TiBP-Spacer3-AMP, comparative chimeric peptide with shorter spacer]”, the “Minimum Inhibitory Concentration (MIC) S. epidermidis” value [3] is given as 5 µM and the “Minimum Inhibitory Concentration (MIC) S. mutans” value [4] is given as 153 µM.
In the case of “RPRENRGRERGLGSGGGLKLLKKLLKLLKKL [TiBP-Spacer5-AMP, RPRENRGRERGL-GSGGG-LKLLKKLLKLLKKL (SEQ ID NO: 10)]”, the “Fold Improvement Compared to Uncoated Ti Surfaces, Implants” value ([5]; implant discs coated at 10 μM) is reported as 48 fold, the “Fold Improvement Compared to Uncoated Ti Surfaces, Foils” value ([5]; titanium foil coated at 10 μM) is reported as 33 fold and the bactericidal concentration [6] is reported as 10 µM. The bactericidal concentration [7] was 60 µM, the Growth ([8]; 1 μM) was “+” and the Growth ([8]; 2 μM) was “+”. The Growth ([8]; 3 μM) was “+”, the Growth ([8]; 4 μM) was “+” and the Growth ([8]; 5 μM) was “+”. The Growth ([8]; 6 μM) was “+”, the Growth ([8]; 7 μM) was “+” and the Growth ([8]; 8 μM) was “−”. For the same compound, the “Minimum Inhibitory Concentration (MIC) S. epidermidis” value ([8]; in solution) was 8 µM, the Growth ([9]; 5 μM) was “+” and the Growth ([9]; 10 μM) was “+”. The Growth ([9]; 20 μM) was “+”, the Growth ([9]; 30 μM) was “+” and the Growth ([9]; 40 μM) was “+”. For the same compound, the Growth ([9]; 50 μM) was “−”, the Growth ([9]; 60 μM) was “−” and the Growth ([9]; 70 μM) was “−”. For the same compound, the “improvement (decrease) of MIC against S. mutans” value ([9]; compared to TiBP-Spacer3-AMP) was “three-fold”, the “Minimum Inhibitory Concentration (MIC) S. mutans” value ([9]; in solution) was 50 µM and the “fibroblast surface coverage (spreading)” value ([10]; titanium foils, compared to untreated control) was “greater coverage”. The adhesion and spreading ([10]; titanium implants, compared to collagen positive control) was “statistically comparable to the positive collagen controls” and the “cell attachment and spreading” value ([10]; titanium implants, compared to untreated control) was “greater cell attachment and spreading compared to untreated controls; also recorded: statistically greater cell attachment and spreading properties”.

— patent publication US11492382B2, “Chimeric peptides with an antimicrobial domain and an inorganic binding domain” (priority 2017, dated 2022)
